Data reported in BindingDB's records for doi:10.1111/cbdd.12457 (Universiti Kebangsaan Malaysia, Jalan Raja Muda Abdul Aziz, 2015).

What was measured:
Phospholipase A2 group V = target: T1, Phospholipase A2 group V (Homo sapiens, UniProt P39877); test: sPLA2V Activity Assay; details: pH 7.5; 25 °C
T1 sequence (P39877 whole entry): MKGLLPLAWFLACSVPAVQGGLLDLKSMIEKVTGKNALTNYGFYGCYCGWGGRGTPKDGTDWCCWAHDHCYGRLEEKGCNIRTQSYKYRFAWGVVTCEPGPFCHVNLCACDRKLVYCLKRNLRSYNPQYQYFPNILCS
Experimental: Briefly, sn-2ester bond of the substrate 1,2-bis(heptanoylthio)-glycerophosphocholine was hydrolyzed by PLA2-V followed by the exposure of free thiols. These thiols activated the conversion of DTNB (5,5–dithio-bis-(2-nitrobenzoic acid) to 2-nitro-5-thiobenzoic acid, which was photometrically detected at 405 nm. After this, the assay proceeded in an aqueous buffer solution (pH 7.5) containing KCl (94 mM), CaCl2 (9 mM), Tris (24 mM), and Triton-X 100 ([…]). Before the assay was started, substrate and PLA2-V was resuspended in assay buffer whereas DTNB was dissolved in an aqueous solution of Tris-HCl (pH 8) yielding an enzyme and DTNB concentrations of 100 ng/mL and 87 BM, respectively. 96-well micro titre plates containing substrate solution, DTNB, and the respective test substance were used to carry out assays at room temperature.

[1] = target: T2, Prostaglandin G/H synthase 2 (Homo sapiens, UniProt P35354); test: Cyclooxygenase Assay; details: pH 8; 25 °C
T2 sequence (P35354 whole entry): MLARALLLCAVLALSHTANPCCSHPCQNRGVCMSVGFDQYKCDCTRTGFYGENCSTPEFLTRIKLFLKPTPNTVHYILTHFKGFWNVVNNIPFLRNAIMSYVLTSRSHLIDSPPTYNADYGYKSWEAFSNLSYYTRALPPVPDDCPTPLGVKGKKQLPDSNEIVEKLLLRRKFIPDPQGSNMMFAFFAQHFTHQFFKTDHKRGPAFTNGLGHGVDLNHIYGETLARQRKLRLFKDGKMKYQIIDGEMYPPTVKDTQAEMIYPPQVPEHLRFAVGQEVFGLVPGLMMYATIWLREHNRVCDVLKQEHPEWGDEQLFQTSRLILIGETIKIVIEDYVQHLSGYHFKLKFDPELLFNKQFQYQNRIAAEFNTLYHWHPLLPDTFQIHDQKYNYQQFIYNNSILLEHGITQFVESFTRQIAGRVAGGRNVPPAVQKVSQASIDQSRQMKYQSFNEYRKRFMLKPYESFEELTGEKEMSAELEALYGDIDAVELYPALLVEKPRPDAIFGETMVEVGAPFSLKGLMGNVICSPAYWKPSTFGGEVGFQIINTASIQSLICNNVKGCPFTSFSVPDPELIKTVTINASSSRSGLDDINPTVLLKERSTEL
Experimental: (§1) 100 mM Tris HCl buffer, pH 8.0 containing 1 µM heme and COX-1 (ovine) or COX-2(human recombinant), which was preincubated for 10 min in a water bath at 37 °C was used for reaction mixture preparation. Addition of 10 µL arachidonic acid to the reaction mixture (final concentration 100 µM) was used to initiate reaction. After 2 min reaction was stopped by addition of 1 M HCl. PGE2 in the reaction mixture was determined using ELISA method. 100 mM potassium phosphate buffer (pH 7.4) was used to dilute the DMSO stock solutions of the test compounds to the desired concentration. This reaction mixture was transferred to a 96-well platethat was precoated with a mouse anti-rabbit IgG. Tracer prostaglandin acetylcholine esterase and primary antibody (mouse anti PGE2) were also added to the plates followed by overnight incubation at room temperature. After overnightincubation, reaction mixtures were pipetted out and the wells were washed with 10 mM potassium phosphate buffer containing 0.05% Twe

[2] = target: T3, Prostaglandin G/H synthase 1 (Ovis aries, UniProt P05979); test: Cyclooxygenase Assay; details: pH 8; 25 °C
T3 sequence (P05979 whole entry): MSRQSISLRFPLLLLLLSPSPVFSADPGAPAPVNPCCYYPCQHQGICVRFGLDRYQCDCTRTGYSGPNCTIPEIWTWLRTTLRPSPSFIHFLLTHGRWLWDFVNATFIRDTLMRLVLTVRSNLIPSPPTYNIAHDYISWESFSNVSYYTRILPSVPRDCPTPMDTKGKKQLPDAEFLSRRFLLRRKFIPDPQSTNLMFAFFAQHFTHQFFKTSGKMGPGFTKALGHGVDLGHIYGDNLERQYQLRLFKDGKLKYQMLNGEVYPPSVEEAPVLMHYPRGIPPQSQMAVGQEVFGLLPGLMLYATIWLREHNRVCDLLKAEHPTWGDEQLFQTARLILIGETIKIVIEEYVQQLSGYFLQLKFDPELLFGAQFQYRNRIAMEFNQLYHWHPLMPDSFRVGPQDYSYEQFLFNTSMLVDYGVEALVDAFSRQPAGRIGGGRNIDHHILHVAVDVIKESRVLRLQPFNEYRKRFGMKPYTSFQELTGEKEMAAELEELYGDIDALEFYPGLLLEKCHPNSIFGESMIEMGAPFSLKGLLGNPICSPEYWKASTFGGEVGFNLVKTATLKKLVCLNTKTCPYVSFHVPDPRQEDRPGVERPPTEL
Experimental: as §1

SMILES	IC50 (Phospholipase A2 group V) [µM]	IC50 [1] [µM]	IC50 [2] [nM]
COc1cc2ccccc2c(/C=C/C(=O)c2cc3ccccc3o2)c1OC [1-Benzofuran-2-yl-3-(2,3-dimethoxy-naphthalen-1-yl)-propenone (3)]	12.7	12.2	12500
CN(C)c1ccc(C2CC(c3ccc4c(c3)OCCO4)=NN2C(=O)Nc2ccc(Cl)cc2)c2ccccc12 (stereo unspecified) [3-(2,3-Dihydro-benzo[1,4]dioxin-6-yl)-5-(4-dimethylamino-naphthalen-1-yl)-4,5-dihydropyrazole-1-carboxylic acid (4-chloro-phenyl)-amide (4b)]	17.2	9.72	440
COc1ccc2c(OC)ccc(/C=C/C(=O)c3cc4ccccc4o3)c2c1 [1-Benzofuran-2-yl-3-(4,7-dimethoxy-naphthalen-1-yl)-propenone (2)]	27.8	19.1	15000
COc1cc2ccccc2c(C2CC(c3cc4ccccc4o3)=NN2C(N)=S)c1OC (stereo unspecified) [3-Benzofuran-2-yl-5-(2,3-dimethoxy-naphthalen-1-yl)-4,5-dihydro-pyrazole-1-carbothioic acid amide (3a)]	9.17	10.3	8060
C[C@@H]1C[C@H]2[C@@H]3CCC4=CC(=O)C=C[C@]4(C)[C@@]3(F)[C@@H](O)C[C@]2(C)[C@@]1(O)C(=O)CO [dexamethasone (tetramethyl-rhodamine conjugated )]	0.62		
COc1ccc2c(OC)ccc(C3CC(c4ccc5c(c4)OCCO5)=NN3C(=O)Nc3ccc(Cl)cc3)c2c1 (stereo unspecified) [3-(2,3-Dihydro-benzo[1,4]dioxin-6-yl)-5-(4,7-dimethoxy-naphthalen-1-yl)-4,5-dihydropyrazole-1-carboxylic acid (4-chloro-phenyl)-amide (6b)]	5.12	12	940
COc1ccc2c(OC)ccc(C3CC(c4cc5ccccc5o4)=NN3C(N)=S)c2c1 (stereo unspecified) [3-Benzofuran-2-yl-5-(4,7-dimethoxy-naphthalen-1-yl)-4,5-dihydro-pyrazole-1-carbothioic acid amide (2a)]	21.1	12.3	7220
CN(C)c1ccc(C2CC(c3cc4ccccc4o3)=NN2C(=O)Nc2ccc(Cl)cc2)c2ccccc12 (stereo unspecified) [3-Benzofuran-2-yl-5-(4-dimethylamino-naphthalen-1-yl)-4,5-dihydro-pyrazole-1-carboxylic acid(4-chloro-phenyl)-amide (1b)]	22.2	9.1	1870
CN(C)c1ccc(C2CC(c3cc4ccccc4o3)=NN2C(N)=S)c2ccccc12 (stereo unspecified) [3-Benzofuran-2-yl-5-(4-dimethylamino-naphthalen-1-yl)-4,5-dihydro-pyrazole-1-carbothioic acid amide (1a)]	35.4	14.5	4530
CN(C)c1ccc(/C=C/C(=O)c2ccc3c(c2)OCCO3)c2ccccc12 [1-(2,3-Dihydro-benzo[1,4]dioxin-6-yl)-3-(4-dimethylamino-naphthalen-1-yl)-propenone (4)]	32.2	24.5	7060
COc1cc2ccccc2c(C2CC(c3cc4ccccc4o3)=NN2C(=O)Nc2ccc(Cl)cc2)c1OC (stereo unspecified) [3-Benzofuran-2-yl-5-(2,3-dimethoxy-naphthalen-1-yl)-4,5-dihydro-pyrazole-1-carboxylic acid(4-chloro-phenyl)-amide (3b)]	8.46	5.02	990
COc1ccc2c(OC)ccc(C3CC(c4ccc5c(c4)OCCO5)=NN3C(N)=S)c2c1 (stereo unspecified) [3-(2,3-Dihydro-benzo[1,4]dioxin-6-yl)-5-(4,7-dimethoxy-naphthalen-1-yl)-4,5-dihydro-pyrazole-1-carbothioic acid amide (6a)]	7.12	12.6	2820
COc1ccc2c(OC)ccc(C3CC(c4cc5ccccc5o4)=NN3C(=O)Nc3ccc(Cl)cc3)c2c1 (stereo unspecified) [3-Benzofuran-2-yl-5-(4,7-dimethoxy-naphthalen-1-yl)-4,5-dihydro-pyrazole-1-carboxylic acid(4-chloro-phenyl)-amide (2b)]	14.5	11.1	2140
CN(C)c1ccc(C2CC(c3ccc4c(c3)OCCO4)=NN2C(N)=S)c2ccccc12 (stereo unspecified) [3-(2,3-Dihydro-benzo[1,4]dioxin-6-yl)-5-(4-dimethylamino-naphthalen-1-yl)-4,5-dihydropyrazole-1-carbothioic acid amide (4a)]	22.2	13.2	1120
COc1cc2ccccc2c(C2CC(c3ccc4c(c3)OCCO4)=NN2C(N)=S)c1OC (stereo unspecified) [3-(2,3-Dihydro-benzo[1,4]dioxin-6-yl)-5-(2,3-dimethoxy-naphthalen-1-yl)-4,5-dihydro-pyrazole-1-carbothioic acid amide (5a)]	19.2	17.8	3420
COc1cc2ccccc2c(C2CC(c3ccc4c(c3)OCCO4)=NN2C(=O)Nc2ccc(Cl)cc2)c1OC (stereo unspecified) [3-(2,3-Dihydro-benzo[1,4]dioxin-6-yl)-5-(2,3-dimethoxy-naphthalen-1-yl)-4,5-dihydropyrazole-1-carboxylic acid (4-chloro-phenyl)-amide (5b)]	17.3	12.3	1170
